Measurements: publication PMC4891657, “Orexin 2 Receptor Antagonism is Sufficient to Promote NREM and REM Sleep from Mouse to Man” (Scientific Reports, 2016)
“Also recorded” adds a separate entry of the source. Where two headings read alike, the source gives them in different places.

Experiments:
sleep = test: Polysomnography in healthy male subjects; assay type: in vivo, human
Protocol: In the PSG study, subjects underwent 8-hour PSG recording periods beginning 1 hour after nighttime administration of MK-1064 (50, 120 and 250 mg) or placebo. […] Dose-dependence of the effects of MK-1064, while not evaluated statistically, was most pronounced with regard to LPS, LREM and REM sleep, and to a lesser extent, TST and WASO sleep (Fig. 7b).
Figure 7 MK-1064 promotes sleep in healthy subjects. MK-1064 (50, 120 and 250 mg) or placebo were administered 1 hour prior to the normal resting phase in healthy subjects (N = 20), and PSG effects were monitored during the normal resting phase.
Twenty healthy male subjects between the ages of 18 and 45 years were recruited to a double-blind, randomized, 4-period, crossover study to evaluate the effects of single doses of MK-1064. Subjects were without a history of physical or mental illnesses, had no history of sleep abnormalities, and were not regularly taking medication. Subject inclusion required a sleep score ≤6 on the Pittsburgh Sleep Quality Index at the time of screening, and qualified subjects underwent a PSG screening prior to randomization to exclude those with latent sleep disturbances. In each of the 4 treatment periods, subjects were randomized to receive single doses of MK-1064 (50, 120, or 250 mg) or matching placebo according to a balanced crossover design (see Fig. 5). Briefly, 20 subjects were randomized to 4 panels (n = 5 each). Each panel then received each of the four treatments (placebo, 50, 120, 250 mg MK-1064) in 4 different study periods where each period allocated the 4 different treatments to the 4 different subject panels. Progression through each period rotated the 4 different treatments among the subject panels such that each panel ultimately received all 4 treatments. In all 4 study periods, subjects were admitted for a pre-dose habituation night. On the following treatment night, subjects were administered a single dose of study medication in a blinded manner approximately 1 hour before their habitual bedtime. Study medication was administered following a ≥4-hour fast. Dosing in different treatment periods was separated by a washout of at least 7 days for each subject. PSG recording commenced at 1 hour post-dose and continued during undisturbed sleep for 8 hours overnight. Visual scoring of each 30-sec epoch of PSG recording to wake or one of four sleep states (S1, S2, SWS, collectively referred to as NREM, and REM) was performed according to standard and established Rechtschaffen and Kales criteria. Obtained scores were then used to calculate efficacy assessment measures including latency to persistent sleep (LPS) (min), wake after sleep onset (WASO) (min), sleep efficiency (SE) (%), and total sleep time (TST) (min). LPS is the time from lights off to the first epoch of 20 consecutive epochs of non-wake stage; WASO is the time in wake stage between the onset of persistent sleep and the time of lights on; and SE is the proportion of time between lights off and lights on that was spent in sleep. In addition to efficacy parameters, latency to REM (LREM) (min), equal to the time from lights off to the first epoch of REM, and the proportion (%) of TST spent in NREM and REM were calculated. Estimation of the effects of treatment on PSG endpoints relative to placebo, including the calculation of confidence intervals and p-values were done using a mixed-effect statistical model typical for crossover studies. Specifically, logarithm of an analyzed endpoint represented the response variable, and treatment dose, treatment period, and carryover effect were fixed-effect explanatory variables. Subject effect was the random effect with the within-subject covariance assumed to be of the unstructured type. […] SAS/STAT® Version 9.3 software (SAS Institute, Cary NC) was used in the analysis.

[1] = Pharmacokinetics, ascending single-dose study in healthy male subjects; assay type: in vivo; details: human, plasma, single oral doses 5 to 250 mg; for half-life: male, po
Protocol: In the ascending single-dose study, doses of MK-1064 ranging from 5 to 250 mg corresponded with dose-dependent changes in measured plasma levels (Fig. 6a). […] The greatest effects were observed between 1 and 4 hours, and effects greatly diminished 8 hours following treatment, consistent with the time course of plasma concentrations of MK-1064.
MK-1064 safety, PK and PD were evaluated in a randomised, double-blind, placebo-controlled, alternating panel, single oral ascending-dose first-in-human study (see Fig. 5). Participants were unmedicated healthy male subjects (age 18–45 years) without a history of physical or mental illnesses or sleep abnormalities. Two panels received alternating single ascending oral doses of MK-1064 in up to 5 treatment periods (Panel A: 5, 25, 100 and 200 mg [fasting conditions], 25 mg [fed condition], or matching placebo; Panel B: 10, 50, 150 and 250 mg [all daytime administration], 50 mg [evening administration], or matching placebo). Within each period, subjects were randomized to active treatment (N = 6) and placebo (N = 2) groups. There was a minimum of 3 days between ascending doses occurring between alternating subject panels to enable safety data review; treatments within subject panels were separated by a minimum 7-day washout period. The safety and tolerability of MK-1064 were monitored throughout the study by repeated evaluations of AEs, clinical assessments (semi-recumbent and orthostatic vital signs measurements, 12-lead electrocardiograms (ECGs), physical examinations, neurologic examinations), and safety laboratory tests (chemistry, hematology, urinalysis).
During each treatment period, blood was collected for PK analysis pre-dose and at time points up to 72 hours post-dose. MK-1064 plasma concentrations were determined by reverse phase high-performance liquid chromatography and detected with tandem mass spectrometry. The lower limit of quantitation was 1 ng/mL and the linear calibration range was 1–1000 ng/mL. PK parameters were calculated with WinNonLin 5.2.1. Values below the assay limit of quantification were indicated with a zero value. PD effects on arousal and mood were assessed by the Karolinska Sleepiness Scale (KSS)[45] and Bond and Lader Visual Analogue Scale (VAS)[46] in exploratory endpoints.

Dog plasma free fraction = assay type: in vitro ADME
cataplexy = test: Food-elicited cataplexy test (FECT); assay type: in vivo, dog; details: dogs, 20 mg/kg, 1 hour after administration
Protocol: A standard measure for quantifying narcolepsy with cataplexy in dogs is the food-elicited cataplexy test (FECT).
The FECT was performed essentially as described previously. After a 2-day vehicle run-in period, female dogs (n = 8; Marshall Farms) were treated with MK-1064 (20 mg/kg) or vehicle in a 1-day vehicle x 2-day drug crossover design. Daytime FECTs[32][43][44] with simultaneous video and electrocorticography (ECoG), electromyography (EMG), and electrooculography (EOG) recordings were conducted 1 hour post-dose. Following release into the test room, dogs were remotely monitored while consuming 10 evenly spaced, approximately 1-inch[2] balls of wet dog food (Pedigree® chunk beef). Video and ECoG/EOG/EMG recordings were evaluated for any signs of cataplexy (e.g., collapse, EMG attenuation, sudden-onset REM sleep; see Kushida et al.[43]) and the time needed to consume all 10 balls of food.

[2] = healthy subjects, two highest doses (120, 250 mg)

With `COc1ccc(CNC(=O)c2cc(-c3cncc(Cl)c3)cnc2-c2ccccn2)nc1OC` [MK-1064, 5″-chloro-N-[(5,6-dimethoxypyridin-2-yl)methyl]-2,2′:5′, 3″-terpyridine-3′-carbo xamide] as the compound, how does the “time spent in Stage 2” value (sleep; healthy subjects, 120 mg) read?
The value was “significant increase”.

What about the “LPS as fraction of placebo response” value (sleep; healthy subjects, 50, 120 and 250 mg (all doses)) of the same compound?
The value was “significant reductions”.

What about the “WASO as fraction of placebo response” value (sleep; [2]) of the same compound?
Its value is “significant reductions”.

And the “reduction in LREM versus placebo” value (sleep; [2])?
The value was “statistically significant”.

And the NREM sleep (sleep; healthy subjects, two lower doses (50, 120 mg))?
Its NREM sleep is “increases in NREM sleep”.

What about the “time spent in Stage 1 and SWS” value (sleep; healthy subjects, vs placebo) of the same compound?
Its value is “not significantly different from placebo”.

What about the Cmax [1] of the same compound?
Its Cmax is 0.37 to 8.28 µM.

What about the Tmax ([1]; read-out: median time of peak concentrations (Tmax)) of the same compound?
Its Tmax is 1 to 2 h.

And the half-life ([1]; read-out: alpha phase half-life)?
The half-life was 96 to 240 min.

What about the half-life ([1]; read-out: mean apparent terminal half-life) of the same compound?
The half-life was 408 to 666 min.

What about the fraction unbound (Dog plasma free fraction) of the same compound?
Its fraction unbound is 0.286.

And the “cataplectic episodes in FECT” value (cataplexy)?
The value was “no cataplectic episodes; also recorded: cataplexy was not observed”.

And the “mean time to complete the FECT” value (cataplexy; not significantly different from vehicle)?
The value was 37.8 s.
